# Laboratory results published in patent publication US20210038607A1, “OXADIAZOLYLTHIOPHENE DERIVATIVES USEFUL AS HISTONE DEACETYLASE INHIBITORS” (Karus Therapeutics Limited, priority 2018, published 2021).
# Tests used:
# Human HDAC10 = molecular target: T1, Human HDAC10 (Homo sapiens, UniProt Q969S8); experiment: HDAC10 biochemical assay, AMC-labeled peptide substrate; settings: read-out: HDAC Isoform IC50 (nM) 10
# T1 construct: Human HDAC10 (a.a. 1-481); GST (N); His (C); host or cells: baculovirus expression system
# T1 sequence (Q969S8 1-481): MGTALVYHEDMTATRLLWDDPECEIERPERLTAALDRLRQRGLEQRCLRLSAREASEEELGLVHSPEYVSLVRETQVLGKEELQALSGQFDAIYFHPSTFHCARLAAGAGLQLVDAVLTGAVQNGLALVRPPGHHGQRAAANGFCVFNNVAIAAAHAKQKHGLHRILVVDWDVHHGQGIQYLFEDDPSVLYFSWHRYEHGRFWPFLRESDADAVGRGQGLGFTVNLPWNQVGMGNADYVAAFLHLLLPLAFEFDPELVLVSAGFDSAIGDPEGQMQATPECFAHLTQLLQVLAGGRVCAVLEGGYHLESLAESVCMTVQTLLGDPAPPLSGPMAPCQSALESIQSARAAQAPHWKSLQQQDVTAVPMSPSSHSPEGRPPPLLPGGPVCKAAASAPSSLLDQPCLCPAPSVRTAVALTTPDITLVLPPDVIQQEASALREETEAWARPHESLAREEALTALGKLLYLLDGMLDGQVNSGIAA
# How it was run: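 Two-step fluorogenic read-out (Ex/Em 360/460) after developer digestion of deacetylated RHKK(Ac)AMC (50 μM). Deacetylation ran 2 h at 30 °C with 12 ng/ul HDAC10 (aa 1-481, GST/His tags, baculovirus) in Tris-HCl pH 8.0, BSA, 1% DMSO.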
# Human HDAC5 = molecular target: T2, Human HDAC5 (Homo sapiens, UniProt Q9UQL6); experiment: HDAC5 biochemical assay, class IIa-specific substrate; settings: read-out: HDAC Isoform IC50 (nM) 5
# T2 construct: full length with C-terminal His tag, MW=51.1 kDa; His (C); host or cells: baculovirus expression system
# How it was run: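 Two-step fluorogenic read-out: deacetylated trifluoroacetyl-lysine AMC substrate (50 μM) digested by developer, measured at Ex/Em 360/460. Deacetylation step: 0.05 ng/ul His-tagged full-length baculoviral enzyme with compound, 30 min, room temperature, pH 8.0 Tris with 1 mg/mL BSA and 1% DMSO.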
# [1] = molecular target: T3, Complex of human HDAC3 and human NCOR2 (Homo sapiens, UniProt O15379); experiment: HDAC3 biochemical assay, AMC-labeled peptide substrate; settings: read-out: HDAC Isoform IC50 (nM) 3
# T3 construct: full length with C-terminal His tag, MW=49.7 kDa; His (C); host or cells: baculovirus expression system (co-expressed)
# How it was run: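 Two-stage fluorogenic read: compounds incubated 1 h at 30° C with 50 μM RHKK(Ac)AMC and 0.1 ng/ul HDAC3–NCOR2(395-489) complex (Tris pH8.0, NaCl, KCl, MgCl2, BSA, 1% DMSO). Developer digestion of deacetylated product gives signal at Ex 360/Em 460.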
# Human HDAC1 = molecular target: T4, Human HDAC1 (Homo sapiens, UniProt Q13547); experiment: HDAC1 biochemical assay, AMC-labeled peptide substrate; settings: read-out: HDAC Isoform IC50 (nM) 1
# T4 construct: full length with C-terminal His-tag and C-terminal FLAG-tag; His (C); FLAG (C); host or cells: baculovirus expression system
# How it was run: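 Two-step fluorogenic read: HDAC1 deacetylates 50 μM acetyl-lysine AMC peptide RHKK(Ac)AMC for 1 h at 30° C (pH 8.0, 1% DMSO, with compound), then developer digests the product for fluorescence at Ex/Em 360/460. Enzyme is full-length human, His/FLAG-tagged, insect-cell expressed, at 0.3 ng/ul.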
# Human HDAC2 = molecular target: T5, Human HDAC2 (Homo sapiens, UniProt Q92769); experiment: HDAC2 biochemical assay, AMC-labeled peptide substrate; settings: read-out: HDAC Isoform IC50 (nM) 2
# T5 construct: full length with C-terminal GST-tag; GST (C); host or cells: baculovirus expression system
# How it was run: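 Full-length human HDAC2 with C-terminal GST tag, baculovirus-expressed, at 0.07 ng/ul with 50 μM RHKK(Ac)AMC substrate in Tris-HCl pH8.0 buffer with BSA, 1% DMSO final. Incubated 1 hour at 30° C with compounds, then developer added; fluorescence read at 360/460 Ex/Em.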
# T2 sequence (Q9UQL6 656-1122 limits assumed): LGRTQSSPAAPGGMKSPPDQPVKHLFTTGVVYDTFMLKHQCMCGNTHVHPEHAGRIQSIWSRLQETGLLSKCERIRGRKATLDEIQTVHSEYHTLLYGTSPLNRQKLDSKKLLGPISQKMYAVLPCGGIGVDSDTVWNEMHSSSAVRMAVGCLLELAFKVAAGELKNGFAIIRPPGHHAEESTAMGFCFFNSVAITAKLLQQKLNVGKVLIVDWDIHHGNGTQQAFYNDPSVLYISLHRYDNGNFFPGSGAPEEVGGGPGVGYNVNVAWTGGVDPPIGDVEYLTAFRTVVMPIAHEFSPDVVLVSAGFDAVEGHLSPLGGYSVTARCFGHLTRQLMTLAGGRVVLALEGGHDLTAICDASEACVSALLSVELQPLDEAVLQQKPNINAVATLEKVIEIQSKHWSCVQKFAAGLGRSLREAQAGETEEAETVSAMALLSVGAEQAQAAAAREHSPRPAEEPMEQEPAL
# T4 sequence (Q13547 whole entry, canonical isoform): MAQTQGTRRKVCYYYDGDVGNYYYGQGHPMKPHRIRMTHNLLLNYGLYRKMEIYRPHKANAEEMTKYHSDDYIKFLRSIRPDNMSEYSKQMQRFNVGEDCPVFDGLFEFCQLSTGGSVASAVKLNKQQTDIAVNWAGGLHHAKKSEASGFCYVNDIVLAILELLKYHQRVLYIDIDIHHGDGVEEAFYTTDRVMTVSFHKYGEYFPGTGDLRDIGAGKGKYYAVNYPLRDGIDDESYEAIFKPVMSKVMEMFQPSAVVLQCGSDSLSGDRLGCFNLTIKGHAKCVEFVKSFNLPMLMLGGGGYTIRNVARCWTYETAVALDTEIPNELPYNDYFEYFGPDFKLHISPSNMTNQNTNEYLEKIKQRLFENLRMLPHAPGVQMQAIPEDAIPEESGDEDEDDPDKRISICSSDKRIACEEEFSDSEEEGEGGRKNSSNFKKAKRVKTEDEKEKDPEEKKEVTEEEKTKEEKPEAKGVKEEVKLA
# T5 sequence (Q92769 whole entry, canonical isoform): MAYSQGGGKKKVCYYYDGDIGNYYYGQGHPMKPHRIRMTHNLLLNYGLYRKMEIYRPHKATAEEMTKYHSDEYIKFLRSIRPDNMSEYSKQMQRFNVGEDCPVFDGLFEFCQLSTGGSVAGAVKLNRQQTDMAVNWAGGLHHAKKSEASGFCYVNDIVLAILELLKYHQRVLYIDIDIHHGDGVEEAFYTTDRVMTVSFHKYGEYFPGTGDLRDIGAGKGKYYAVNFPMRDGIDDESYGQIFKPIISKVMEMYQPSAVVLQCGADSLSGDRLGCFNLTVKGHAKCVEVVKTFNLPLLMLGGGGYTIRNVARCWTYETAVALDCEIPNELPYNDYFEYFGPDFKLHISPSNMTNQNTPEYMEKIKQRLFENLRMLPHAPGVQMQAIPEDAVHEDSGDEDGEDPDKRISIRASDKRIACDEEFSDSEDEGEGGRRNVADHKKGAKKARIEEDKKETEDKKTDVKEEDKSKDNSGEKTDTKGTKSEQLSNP
# T3 sequence (O15379 whole entry, canonical isoform): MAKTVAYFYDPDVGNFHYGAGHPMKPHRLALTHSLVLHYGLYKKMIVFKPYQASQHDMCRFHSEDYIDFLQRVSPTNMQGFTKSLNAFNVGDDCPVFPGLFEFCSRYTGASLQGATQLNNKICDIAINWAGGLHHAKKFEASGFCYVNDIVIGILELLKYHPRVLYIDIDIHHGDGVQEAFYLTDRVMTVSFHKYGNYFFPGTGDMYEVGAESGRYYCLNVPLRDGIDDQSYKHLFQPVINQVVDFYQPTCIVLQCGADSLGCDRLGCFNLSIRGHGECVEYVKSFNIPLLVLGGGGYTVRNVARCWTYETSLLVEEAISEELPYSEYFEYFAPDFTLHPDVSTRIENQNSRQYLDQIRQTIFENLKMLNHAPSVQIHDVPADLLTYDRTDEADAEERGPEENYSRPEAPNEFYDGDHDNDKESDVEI
# T3 sequence (Q9Y618 395-489 partner limits assumed): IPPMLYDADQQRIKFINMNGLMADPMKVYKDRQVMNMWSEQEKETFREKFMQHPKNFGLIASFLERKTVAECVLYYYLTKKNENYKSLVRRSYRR
Compound,IC50 (Human HDAC10) [nM],IC50 (Human HDAC5) [nM],IC50 [1] [nM],IC50 (Human HDAC1) [nM],IC50 (Human HDAC2) [nM]
"FC(F)(F)c1cncc(N(Cc2ccc(-c3noc(C(F)(F)F)n3)s2)c2cnccn2)n1 [Example BR, N-(Pyrazin-2-yl)-6-(trifluoromethyl)-N-({5-[5-(trifluoromethyl)-1,2,4-oxadiazol-3-yl]thiophen-2-yl}methyl)pyrazin-2-amine]",> 10000,≤ 10000,> 10000,> 10000,> 10000
"COc1nccnc1N(Cc1ccc(-c2noc(C(F)(F)F)n2)s1)c1cnccn1 [Example BF, 3-Methoxy-N-(pyrazin-2-yl)-N-({5-[5-(trifluoromethyl)-1,2,4-oxadiazol-3-yl]thiophen-2-yl}methyl)pyrazin-2-amine]",> 10000,≤ 10000,> 10000,> 10000,> 10000
"O=C(c1cnnc(N(Cc2ccc(-c3noc(C(F)(F)F)n3)s2)c2cnccn2)c1)N1C2CCC1COC2 [Example GB, 5-{3-Oxa-8-azabicyclo[3.2.1]octane-8-carbonyl}-N-(pyrazin-2-yl)-N-({5-[5-(trifluoromethyl)-1,2,4-oxadiazol-3-yl]thiophen-2-yl}methyl)pyridazin-3-amine]",> 10000,≤ 1000,> 10000,> 10000,> 10000
"O=C(c1cnnc(N(Cc2ccc(-c3noc(C(F)(F)F)n3)s2)c2cnccn2)c1)N1CC[S+]([O-])CC1 [Example FU, 4-{6-[(Pyrazin-2-yl)({5-[5-(trifluoromethyl)-1,2,4-oxadiazol-3-yl]thiophen-2-yl}methyl)amino]pyridazine-4-carbonyl}-1lambda4-thiomorpholin-1-one]",> 10000,≤ 1000,> 10000,> 10000,> 10000
"FC(F)c1cnnc(N(Cc2ccc(-c3noc(C(F)(F)F)n3)s2)c2cnccn2)c1 [Example GV, 5-(Difluoromethyl)-N-(pyrazin-2-yl)-N-({5-[5-(trifluoromethyl)-1,2,4-oxadiazol-3-yl]thiophen-2-yl}methyl)pyridazin-3-amine]",> 10000,≤ 1000,> 10000,> 10000,> 10000
"C[C@H]1CCCN1C(=O)c1cnnc(N(Cc2ccc(-c3noc(C(F)(F)F)n3)s2)c2cnccn2)c1 [Example GY, 5-[(2S)-2-Methylpyrrolidine-1-carbonyl]-N-(pyrazin-2-yl)-N-({5-[5-(trifluoromethyl)-1,2,4-oxadiazol-3-yl]thiophen-2-yl}methyl)pyridazin-3-amine]",> 10000,≤ 1000,> 10000,> 10000,> 10000
"O=C(c1cncc(N(Cc2ccc(-c3noc(C(F)(F)F)n3)s2)c2cnccn2)c1)N1CCOCC1 [Example GR, N-[5-(Morpholine-4-carbonyl)pyridin-3-yl]-N-({5-[5-(trifluoromethyl)-1,2,4-oxadiazol-3-yl]thiophen-2-yl}methyl)pyrazin-2-amine]",> 10000,≤ 500,> 10000,> 10000,> 10000
"O=C(c1ccc(N(Cc2ccc(-c3noc(C(F)(F)F)n3)s2)c2cnccn2)nn1)N1C[C@@H]2C[C@H]1CO2 [Example FE, 6-[(1S,4S)-2-Oxa-5-azabicyclo[2.2.1]heptane-5-carbonyl]-N-(pyrazin-2-yl)-N-({5-[5-(trifluoromethyl)-1,2,4-oxadiazol-3-yl]thiophen-2-yl}methyl)pyridazin-3-amine]",> 10000,≤ 500,≤ 10000,> 10000,> 10000
"O=C(c1cnnc(N(Cc2ccc(-c3noc(C(F)(F)F)n3)s2)c2cnccn2)c1)N1CCCC1 [Example EA, N-(Pyrazin-2-yl)-5-(pyrrolidine-1-carbonyl)-N-({5-[5-(trifluoromethyl)-1,2,4-oxadiazol-3-yl]thiophen-2-yl}methyl)pyridazin-3-amine]",> 10000,≤ 1000,≤ 10000,> 10000,> 10000
